Data reported in ChEMBL document CHEMBL1145390, “Synthesis and preliminary biological characterization of new semisynthetic derivatives of ramoplanin” (J Med Chem, 2007).
Converted amounts (≈) assume the structure as drawn.

How the values were obtained:
[1] = system: Enterococcus faecium; test: Antibacterial activity against vancomycin A-resistant Enterococcus faecium clinical isolate after 24 hrs by broth microdilution method; type: functional; conditions: read-out: MIC
[2] = Toxicity assessed as hemolysis in erythrocytes at 800 mg/L; type: cell-based, Erythrocyte; conditions: human, read-out: Activity
[3] = system: Enterococcus faecium; test: Antibacterial activity against vancomycin A-resistant Enterococcus faecium clinical isolate in presence of 30% bovine serum after 24 hrs by broth microdilution method; type: functional
[4] = system: Staphylococcus aureus; test: Antibacterial activity against vancomycin-intermediate resistant Staphylococcus aureus clinical isolate after 24 hrs by broth microdilution method; type: functional
[5] = system: Staphylococcus aureus; test: Antibacterial activity against methicillin-resistant Staphylococcus aureus clinical isolate after 24 hrs by broth microdilution method; type: functional; conditions: read-out: MIC
[6] = Toxicity assessed as hemolysis in erythrocytes at 200 mg/L; type: cell-based, Erythrocyte; conditions: human, read-out: Activity
[7] = Toxicity assessed as hemolysis in erythrocytes at 400 mg/L; type: cell-based, Erythrocyte; conditions: human, read-out: Activity
[8] = system: Staphylococcus aureus; test: Antibacterial activity against Staphylococcus aureus Smith after 24 hrs by broth microdilution method; type: functional; conditions: read-out: MIC
[9] = system: Staphylococcus aureus; test: Antibacterial activity against vancomycin-intermediate resistant Staphylococcus aureus clinical isolate in presence of 30% bovine serum after 24 hrs by broth microdilution method; type: functional
[10] = system: Enterococcus faecalis; test: Antibacterial activity against vancomycin A-resistant Enterococcus faecalis after 24 hrs by broth microdilution method; type: functional; conditions: read-out: MIC
[11] = system: Streptococcus pyogenes; test: Antibacterial activity against Streptococcus pyogenes C203 after 24 hrs by broth microdilution method; type: functional; conditions: C203, 24 h, read-out: MIC
[12] = system: Candida albicans; test: Antifungal activity against Candida albicans SKF-2270 after 24 hrs by broth microdilution method; type: functional; conditions: read-out: MIC
[13] = system: Staphylococcus aureus; test: Antibacterial activity against Staphylococcus aureus Smith in presence of 30% bovine serum after 24 hrs by broth microdilution method; type: functional
[14] = system: Enterococcus faecalis; test: Antibacterial activity against vancomycin-resistant Enterococcus faecalis in presence of 30% bovine serum after 24 hrs by broth microdilution method; type: functional
[15] = Toxicity assessed as hemolysis in erythrocytes at 1600 mg/L; type: cell-based, Erythrocyte; conditions: human, read-out: Activity
[16] = system: Enterococcus faecalis; test: Antibacterial activity against Enterococcus faecalis after 24 hrs by broth microdilution method; type: functional; conditions: read-out: MIC
[17] = system: Escherichia coli; test: Antibacterial activity against Escherichia coli SKF-12140 after 24 hrs by broth microdilution method; type: functional; conditions: read-out: MIC
[18] = system: Staphylococcus aureus; test: Antibacterial activity against methicillin-resistant and vancomycin-intermediate resistant Staphylococcus aureus clinical isolate after 24 hrs by broth microdilution method; type: functional; conditions: read-out: MIC
[19] = system: Enterococcus faecium; test: Antibacterial activity against Enterococcus faecium after 24 hrs by broth microdilution method; type: functional; conditions: read-out: MIC
[20] = Toxicity assessed as hemolysis in erythrocytes at 100 mg/L; type: cell-based, Erythrocyte; conditions: human, read-out: Activity

CCCCC(CC)C(=O)N[C@@H](CC(N)=O)C(=O)NC[C@@H]1C(=O)N[C@H](c2ccc(O)cc2)C(=O)N[C@H](CCCN)C(=O)N[C@H](C(C)C)C(=O)N[C@@H](c2ccc(O)cc2)C(=O)N[C@H](c2ccc(O)cc2)C(=O)N[C@@H]([C@@H](C)O)C(=O)N[C@@H](Cc2ccccc2)C(=O)N[C@H](CCCN)C(=O)N[C@@H](c2ccc(O[C@H]3O[C@H](CO)[C@@H](O)[C@H](O)[C@@H]3O[C@H]3O[C@H](CO)[C@@H](O)[C@H](O)[C@@H]3O)cc2)C(=O)N[C@H]([C@@H](C)O)C(=O)N[C@@H](c2ccc(O)cc2)C(=O)NCC(=O)N[C@@H](CC(C)C)C(=O)N[C@H](C)C(=O)N[C@@H](c2ccc(O)c(Cl)c2)C(=O)O[C@@H]1C(N)=O (stereo not given in full)
MIC [1]: 0.5 µg/mL (≈ 0.196 µM)
hemolysis at 800 mg/L [2]: 73%
MIC [3]: 1 µg/mL
MIC [4]: 1 µg/mL (≈ 0.391 µM)
MIC [5]: 0.25 µg/mL (≈ 0.0978 µM)
hemolysis at 200 mg/L [6]: 4%
hemolysis at 400 mg/L [7]: 8%
MIC [8]: 0.25 µg/mL (≈ 0.0978 µM)
MIC [9]: 2 µg/mL
MIC [10]: 0.25 µg/mL (≈ 0.0978 µM)
MIC [11]: ≤ 0.125 µg/mL
MIC [12]: > 128 µg/mL
MIC [13]: 0.5 µg/mL
MIC [14]: 1 µg/mL
hemolysis at 1600 mg/L [15]: 83%
MIC [16]: 0.5 µg/mL (≈ 0.196 µM)
MIC [17]: > 128 µg/mL
MIC [18]: 2 µg/mL (≈ 0.782 µM)
MIC [19]: 0.5 µg/mL (≈ 0.196 µM)
hemolysis at 100 mg/L [20]: 0%
